The record followed here is publication PMC4151236, “Early identification of hERG liability in drug discovery programs by automated patch clamp” (Frontiers in Pharmacology, 2014).

The data set has as its target T1, hERG (Kv11.1) (Homo sapiens, UniProt Q12809).
T1 construct: gene KCNH2
The data set can be described thus: automated whole-cell patch clamp (QPatch), CHO hERG DUO cells, three-point dose-response. In kind it is cell-based.

T1 sequence (Q12809 whole entry): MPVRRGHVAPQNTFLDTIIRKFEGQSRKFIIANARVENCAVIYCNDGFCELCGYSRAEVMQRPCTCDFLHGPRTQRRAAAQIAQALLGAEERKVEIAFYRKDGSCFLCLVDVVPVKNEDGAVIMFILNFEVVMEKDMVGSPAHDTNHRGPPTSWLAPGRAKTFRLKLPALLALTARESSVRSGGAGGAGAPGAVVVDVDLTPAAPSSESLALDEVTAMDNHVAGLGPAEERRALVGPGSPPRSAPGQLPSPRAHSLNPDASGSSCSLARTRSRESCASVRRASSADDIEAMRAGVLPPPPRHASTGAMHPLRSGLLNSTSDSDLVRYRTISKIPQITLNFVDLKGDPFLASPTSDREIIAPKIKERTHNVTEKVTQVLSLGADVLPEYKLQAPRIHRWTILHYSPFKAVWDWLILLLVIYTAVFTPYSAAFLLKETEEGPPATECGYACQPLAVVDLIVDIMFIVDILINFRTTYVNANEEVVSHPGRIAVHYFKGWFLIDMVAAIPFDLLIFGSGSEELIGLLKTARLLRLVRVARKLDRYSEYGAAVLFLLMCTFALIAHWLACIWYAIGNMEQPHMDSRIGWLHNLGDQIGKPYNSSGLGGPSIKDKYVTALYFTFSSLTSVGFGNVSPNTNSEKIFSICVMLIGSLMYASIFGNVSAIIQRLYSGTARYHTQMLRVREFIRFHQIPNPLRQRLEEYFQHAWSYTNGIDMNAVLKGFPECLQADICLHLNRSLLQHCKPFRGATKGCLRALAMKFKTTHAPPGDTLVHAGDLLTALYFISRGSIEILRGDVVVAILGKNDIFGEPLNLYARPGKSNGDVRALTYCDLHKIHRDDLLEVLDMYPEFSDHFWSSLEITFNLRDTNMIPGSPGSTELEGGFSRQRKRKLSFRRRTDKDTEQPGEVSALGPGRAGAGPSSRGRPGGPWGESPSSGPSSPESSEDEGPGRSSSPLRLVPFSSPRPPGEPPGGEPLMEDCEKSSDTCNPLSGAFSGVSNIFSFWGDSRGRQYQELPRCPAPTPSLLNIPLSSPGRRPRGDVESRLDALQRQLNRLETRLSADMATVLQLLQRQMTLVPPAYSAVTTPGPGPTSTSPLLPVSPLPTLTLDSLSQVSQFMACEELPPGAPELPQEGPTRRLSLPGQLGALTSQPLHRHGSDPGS

Turning to `COc1cc(N)c(Cl)cc1C(=O)NC1CCN(CCCOc2ccc(F)cc2)CC1OC` (stereo not shown) [Cisapride], the “automated whole-cell patch clamp (QPatch), CHO hERG DUO cells, three-point dose-” value is listed as “superimposed to visualize the effect of increasing concentrations of the known hERG blocker Cisapride”.
